This is an account of results in patent US9668984B2, “Use of compounds to inhibit 5 α-reductase enzyme activity, and pharmaceutical and cosmetic compostions containing them” (GIULIANI S.P.A., priority 2008, dated 2017).

Marks after values point to notes of the source that are not given here.

For data set [1], the system named is transplanted hair follicles. The experiment in a line: Further clinical study: topical scalp treatment around hair transplantation. The note with it: once a day from 15 days before to 90 days after the transplant. The format is in vivo, human.
A further data set concerns 5α-reductase. The experiment in a line: Modulation of 5α-reductase activity (testosterone to DHT conversion, ELISA) in mouse fibroblasts after 48 hours of treatment. Type of data set: cell-based. Particulars: for % inhibition of 5α-reductase / Total DHT ng (±SE) / Inhibition of 5α-reductase activity in vitro (result in words): 0.1 mg/ml, 48 hours; for % inhibition of 5α-reductase / Total DHT ng (±SE): pre-incubation for 24 hours with testosterone 10 ng/ml; for % inhibition of 5α-reductase: confidence interval; for Total DHT ng (±SE): final table; for Testosterone, cell extract / Testosterone, supernatant / DHT, cell extract / DHT, supernatant / Final DHT, cell extract / Final DHT, supernatant / Total DHT produced: sample 100 μg/ml; for Testosterone, cell extract / Testosterone, supernatant / DHT, cell extract / DHT, supernatant: 48 h; for Testosterone, cell extract: Balb/c-3T3; for Testosterone, supernatant: Balb/c-3T3 pre-incubated 24 h with testosterone 10 ng/ml; for DHT, cell extract / DHT, supernatant: uncorrected measured DHT; for Final DHT, cell extract: corrected for testosterone crosslinking; for Final DHT, supernatant: measured DHT minus bovine serum DHT minus testosterone crosslinking; for Total DHT produced: per flask (supernatant 10 ml + cell extract 0.5 ml); for Inhibition of 5α-reductase activity in vitro (result in words): mouse fibroblasts Balb/c-3T3, versus untreated control. As for the experimental part: Assessment of the modulation of 5α-reductase activity after treatment for 48 hours with the above-stated compounds in a cell line of mouse fibroblasts.
For this test, the fibroblasts were pretreated with testosterone to increase the basal production of 5α-reductase, then they were treated with the above-mentioned compounds for 48 hours.
At the end of the treatment, the conversion of testosterone into DHT was measured in the treated and untreated cell cultures, using a two-way ELISA. This procedure enables an estimation of the percentage inhibition or stimulation of the specific activity of 5α-reductase.
As a positive control, we used a titrated extract of Serenoa repens (saw palmetto), a plant known in the pharmacopoeia for its capacity to inhibit 5α-reductase and recommended for said purpose in the treatment of prostatic hyperplasia in males.
The cell model used for the in vitro test consisted of mouse fibroblasts Balb/c-3T3. This cell line derives from fibroblasts of […] mouse embryos.
The samples of the above-described compounds were solubilised as follows: • 2,4,6-octatrien-1-ol: 1 mg/ml in absolute ethanol • alternative Boehmeria: 5 mg/ml in growth medium+5% DMSO • traditional Boehmeria: 2.5 mg/ml in growth medium+5% DMSO • Ajuga reptans extract: 5 mg/ml in growth medium+5% DMSO • Finasteride: 5 mg/ml in absolute ethanol • Serenoa repens: 10 μl/ml in absolute ethanol Treatment and Exposure Pre-Incubation
The cells were seeded in 25 cm^2 flasks (T25) in DMEM (Dulbecco's […]) with the addition of 10% FBS (foetal bovine serum). As soon as confluence was achieved, the cultures were treated for 24 hours with 10 ng/ml of testosterone.
After the pre-incubation phase, the cell cultures were treated with said samples at the final concentration of 0.1 mg/ml. The Serenoa repens extract at 0.1 mg/ml was used as a positive control, while the negative control consisted in plates treated with the solvent. Exposure was protracted for 48 hours in the incubator at 37° C., 5% CO2, renewing the medium every 24 hours. Each sample was tested in duplicate.
At the end of the experiment, a cell count was conducted to assess any cytotoxic effects. The of DHT and testosterone content was measured using immunodiagnostic tests (ELISA) in the extracellular (conditioned growth media) and in the intracellular (cell extracts) compartments.
At the end of the experiment, the growth medium was collected from each flask and a cell extract was prepared.
This was done in four stages: • trypsinisation of the cell layer in situ in the flask • centrifugation and collection of the cells in pellets • extraction with Triton X-100 (1% in basal medium) • ultrasonication for 30 minutes. DHT and Testosterone Measurement
The two hormones, DHT and testosterone, were measured both in the supernatant (extracellular DHT/testosterone) and in the cell extracts (intracellular DHT/testosterone).
It is therefore of fundamental importance to determine the quantity of testosterone remaining at the end of the test in order to distinguish it from the newly-synthesised DHT. Moreover, the presence of DHT in foetal bovine serum (FBS), the main component in the growth medium, represents a source of exogenous DHT that must be taken into account in calculating the DHT actually produced by the cells starting from the testosterone.
The method involves the composition of a standard curve, calculated in an appropriate range of concentrations, and uses specific antibodies immobilised on a solid substrate directed against DHT/testosterone, and a reagent that competes for binding to the antibody.
In general terms: ELISA stands for enzyme-linked immunosorbent assay.

The test system of a further data set is androgenetic alopecia. The experiment in a line: Clinical pilot study, Group 1: androgenetic alopecia, topical administration on the scalp. The format is in vivo, human. As for the experimental part:
(§1) A clinical pilot study was also conducted to assess the efficacy of a composition according to the invention in the treatment of male and female androgenetic alopecia and alopecia greata.
(§2) In the composition according to the invention forming the object of this clinical study, said active principle was a salt, and a potassium salt in particular, of 2,4,6-octatrienoic acid, formulated for topical administration on the scalp, in a single daily dose.
Thirty individuals of both genders were recruited (15 males and 15 females) aged between 18 and 55 years, suffering from androgenetic alopecia (grades I-III according to the Hamilton scale for men, and I-II according to the Ludwig scale for women). Since this was a pilot study, an open trial was conducted, administering the composition of the invention.
Exclusion criteria from the study were as follows: • concomitant hormonal and/or pharmacological therapies; • pregnancy and breast-feeding; • systemic hormonal, metabolic and autoimmune diseases; • specific trichological treatments in the previous three months; • concomitant inflammatory diseases of the scalp, e.g. seborrhoeic dermatitis, irritative or allergic dermatitis.
The clinical and dermoscopic assessment of the individuals to treat focused on: hair shaft diameter, presence of a perifollicular halo, evaluation of the anagen phase by epiluminescence study of the bulb.
After the baseline assessment at T0, before starting the treatment, two evaluations after the treatment were conducted, one at T1 after 1 month, and one at T2 after 3 months.
At each follow-up assessment, a clinical evaluation was performed using epiluminescence to establish the hair shaft diameter in a previously-established and marked area (MoleMax II, Dermal Instruments Italia).

Another data set deals with alopecia greata. The experiment in a line: Clinical pilot study, group with alopecia greata (area celsi), topical administration on the scalp. Type of data set: in vivo, human. The method, then: as §1, §2
Alopecia greata (also called area celsi) is a disease involving sudden hair loss typically giving rise to bald patches (or areas).
A significant characteristic of the evolutional stages of alopecia greata is the presence of “exclamation mark” hairs, so called because they appear tapered towards the base.
For the group of individuals treated, the pilot study only enabled us to identify a trend (clinical improvement, stability, worsening) within the short time span considered, i.e. from the baseline T0 before starting the treatment up to T2 after three months of treatment, based on the following parameters: • hair loss • progression of bald patches on the scalp • presence of exclamation mark hairs Results

[2] abbreviates: T2 after 3 months, mean at T0 0.4 mm.
Setting [3] is: T2 after 3 months, mean at T0 56%.
[4] abbreviates: single daily topical dose, epiluminescence, follow-up to T2 (3 months).
Setting [5] is: T0 to T2 (three months of treatment).

With 2,4,6-octatrienoic acid salt, the “Prevention of premature apoptosis and catagen in transplanted hair follicles (result in words)” value in data set [1] is recorded as “promising”.
On to `C/C=C/C=C/C=C/CO` [2,4,6-octatrien-1-ol, 2E,4E,6E-Octatrien-1-ol], for which, in the data set with 5α-reductase, the “% inhibition of 5α-reductase” value is listed as 27-43%; the “Total DHT ng (±SE)” value was 2.3 (±0.1) ng; the “Testosterone, cell extract” value worked out at 1 ng/mL; the “Testosterone, supernatant” value worked out at 1.25 ng/mL. Moreover, in the data set on 5α-reductase, the “DHT, cell extract” value is 450 pg/mL; the “DHT, supernatant” value turned out to be 425 pg/mL; the “Final DHT, cell extract” value amounted to 363 pg/mL; the “Final DHT, supernatant” value is 216 pg/mL. Further, in the data set on 5α-reductase, the “Total DHT produced” value is recorded as 2.34 ng.
As to `CC(C)(C)NC(=O)[C@H]1CC[C@H]2[C@@H]3CC[C@H]4NC(=O)C=C[C@]4(C)[C@H]3CC[C@]12C` [Finasteride], in the data set with 5α-reductase, the “Inhibition of 5α-reductase activity in vitro (result in words)” value was “no significant inhibitory effect”; the “% inhibition of 5α-reductase” value is reported as 0-15* %; the “Total DHT ng (±SE)” value is 3.6 (±0.3) ng; the “Testosterone, cell extract” value came out at 3.1 ng/mL. In the data set with 5α-reductase, the “Testosterone, supernatant” value is 0 ng/mL; the “DHT, cell extract” value is 400 pg/mL; the “DHT, supernatant” value turned out to be 450 pg/mL; the “Final DHT, cell extract” value was 130 pg/mL. Moreover, in the data set with 5α-reductase, the “Final DHT, supernatant” value came out at 350 pg/mL and the “Total DHT produced” value is given as 3.57 ng. Besides, in the data set with 5α-reductase (listed as finasteride), the “Inhibition of 5α-reductase activity in vitro (result in words)” value was “no real inhibitory effect”.
Take `CC=CC=CC=CC(=O)[O-].[K+]` [potassium salt of 2,4,6-octatrienoic acid]: in the data set on androgenetic alopecia (3 months topical treatment), the “Individuals treated with androgenetic alopecia parameters modified in a globally positive manner” value stood at 83%. Further, in the data set on androgenetic alopecia (setting [2]), the “Hair shaft diameter at T2, Group A)” value is on record as 0.7 mm; the “Hair shaft diameter at T2, Group B)” value is 0.6 mm; the “Hair shaft diameter at T2, Group C)” value came to 0.4 mm. Also, in the data set with androgenetic alopecia (setting [3]), the “Percentage of bulbs in the anagen phase at T2, Group A)” value came to 83%; the “Percentage of bulbs in the anagen phase at T2, Group B)” value came to 74%; the “Percentage of bulbs in the anagen phase at T2, Group C)” value is reported as 61%. Further, in the data set with androgenetic alopecia (androgenetic alopecia group), the “Side effects after using the product” value is listed as “None of the individuals showed any side effects”. In addition, in the data set with androgenetic alopecia (setting [4]), the “Cases with increase in hair shaft diameter judged highly significant (A)” value stood at 62%, the “Cases with increase in hair shaft diameter judged not significant (C)” value came out at 17% and the “Cases with increase in hair shaft diameter judged significant (B)” value came to 21%. In the data set with alopecia greata (setting [5]), the “Individuals in whom defluvium of hair in the affected areas diminished” value is given as 55%; the “Individuals with stabilisation of the bald patches” value is 15%; the “Individuals with stoppage in the progression and slight reduction in the extent of the bald patches” value is listed as 43%. The “Number of exclamation mark hairs at T2, individuals with stabilisation or slight improvement in bald patches” value with alopecia greata (T2, mean 82% at T0) is listed as 46%. In the data set with alopecia greata (T2, mean 83% at T0), the “Number of exclamation mark hairs at T2, individuals with worsening bald patches” value is recorded as 82%. Besides, the “Side effects after using the product” value with alopecia greata (alopecia greata group) is listed as “None of the individuals revealed any side effects”. In the data set with alopecia greata (three months of treatment), the “Individuals treated with global trend towards an improvement (clinical improvement and stabilisation of the bald patches)” value was 58%.
